Measurements taken from ChEMBL document CHEMBL1201862, “PubChem BioAssay data set” (2004).
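Compound exposure: 48 hours, 5 concentrations, 96-well plates. At the GI50, growth is halved.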 The source made the active and inactive calls. Rule as the data show it: active = GI50 up to about 1.1 µM and inactive = higher.

Columns and labels:
Assay in all cases: NCI tumour cell line growth inhibition, 48 h
IGROV-1 = system: IGROV-1
Malme-3M = system: Malme-3M
NCI/ADR-RES = system: NCI/ADR-RES
M14 = system: M14
K562 = system: K562
SK-MEL-5 = system: SK-MEL-5
MDA-N = system: MDA-N
HT-29 = system: HT-29
SN12C = system: SN12C
RXF 393 = system: RXF 393
UACC-257 = system: UACC-257
UO-31 = system: UO-31
HOP-62 = system: HOP-62
T47D = system: T47D
MCF7 = system: MCF7
HL-60 = system: HL-60
SF-539 = system: SF-539
PC-3 = system: PC-3
ACHN = system: ACHN
U-251 = system: U-251
SR = system: SR
HCC 2998 = system: HCC 2998
Hs-578T = system: Hs-578T
DU-145 = system: DU-145
KM12 = system: KM12
SW-620 = system: SW-620
A498 = system: A498
HCT-15 = system: HCT-15
SK-OV-3 = system: SK-OV-3
SF-268 = system: SF-268
OVCAR-4 = system: OVCAR-4
SNB-75 = system: SNB-75
SK-MEL-28 = system: SK-MEL-28
BT-549 = system: BT-549
COLO 205 = system: COLO 205
OVCAR-8 = system: OVCAR-8
UACC-62 = system: UACC-62
OVCAR-3 = system: OVCAR-3
MOLT-4 = system: MOLT-4
MDA-MB-435 = system: MDA-MB-435
SK-MEL-2 = system: SK-MEL-2
NCI-H460 = system: NCI-H460
EKVX = system: EKVX
HCT-116 = system: HCT-116
A549 = system: A549
786-0 = system: 786-0
SF-295 = system: SF-295
TK-10 = system: TK-10
NCI-H226 = system: NCI-H226
CCRF-CEM = system: CCRF-CEM
RPMI-8226 = system: RPMI-8226
OVCAR-5 = system: OVCAR-5
LOX IMVI = system: LOX IMVI
NCI-H23 = system: NCI-H23
MDA-MB-231 = system: MDA-MB-231
CAKI-1 = system: CAKI-1
SNB-19 = system: SNB-19

**Q.** How did the GI50 (IGROV-1) turn out when `C[n+]1c2ccccc2c2/c(=C\C#N)c3ccccc3n21` was run?
**A.** 3 µM (inactive)

**Q.** And the GI50 (Malme-3M)?
**A.** 2.53 µM (inactive)

**Q.** And the GI50 (NCI/ADR-RES)?
**A.** 32 µM (inactive)

**Q.** What about the GI50 (M14) of the same compound?
**A.** 4.15 µM (inactive)

**Q.** And the GI50 (K562)?
**A.** 5.42 µM (inactive)

**Q.** What about the GI50 (SK-MEL-5) of the same compound?
**A.** 6.53 µM (inactive)

**Q.** What about the GI50 (MDA-N) of the same compound?
**A.** 3.7 µM (inactive)

**Q.** And the GI50 (HT-29)?
**A.** 3.82 µM (inactive)

**Q.** And the GI50 (SN12C)?
**A.** 3.42 µM (inactive)

**Q.** What about the GI50 (RXF 393) of the same compound?
**A.** 4.85 µM (inactive)

**Q.** What about the GI50 (UACC-257) of the same compound?
**A.** 3.06 µM (inactive)

**Q.** What about the GI50 (UO-31) of the same compound?
**A.** 12.6 µM (inactive)

**Q.** And the GI50 (HOP-62)?
**A.** 2.84 µM (inactive)

**Q.** What about the GI50 (T47D) of the same compound?
**A.** 5.73 µM (inactive)

**Q.** And the GI50 (MCF7)?
**A.** 2.16 µM (inactive)

**Q.** What about the GI50 (HL-60) of the same compound?
**A.** 3.85 µM (inactive)

**Q.** And the GI50 (SF-539)?
**A.** 4.82 µM (inactive)

**Q.** And the GI50 (PC-3)?
**A.** 2.86 µM (inactive)

**Q.** What about the GI50 (ACHN) of the same compound?
**A.** 4.91 µM (inactive)

**Q.** And the GI50 (U-251)?
**A.** 2.73 µM (inactive)

**Q.** And the GI50 (SR)?
**A.** 3.91 µM (inactive)

**Q.** And the GI50 (HCC 2998)?
**A.** 1.61 µM (inactive)

**Q.** And the GI50 (Hs-578T)?
**A.** 4.21 µM (inactive)

**Q.** And the GI50 (DU-145)?
**A.** 6.75 µM (inactive)

**Q.** And the GI50 (KM12)?
**A.** 3.61 µM (inactive)

**Q.** And the GI50 (SW-620)?
**A.** 3.07 µM (inactive)

**Q.** And the GI50 (A498)?
**A.** 20 µM (inactive)

**Q.** What about the GI50 (HCT-15) of the same compound?
**A.** 28.4 µM

**Q.** What about the GI50 (SK-OV-3) of the same compound?
**A.** 3.88 µM (inactive)

**Q.** What about the GI50 (SF-268) of the same compound?
**A.** 6.27 µM (inactive)

**Q.** What about the GI50 (OVCAR-4) of the same compound?
**A.** 2.79 µM (inactive)

**Q.** And the GI50 (SNB-75)?
**A.** 3.23 µM (inactive)

**Q.** And the GI50 (SK-MEL-28)?
**A.** 9.25 µM (inactive)

**Q.** What about the GI50 (BT-549) of the same compound?
**A.** 3.42 µM (inactive)

**Q.** And the GI50 (COLO 205)?
**A.** 1.56 µM (inactive)

**Q.** What about the GI50 (OVCAR-8) of the same compound?
**A.** 3.52 µM (inactive)

**Q.** And the GI50 (UACC-62)?
**A.** 10.7 µM (inactive)

**Q.** And the GI50 (OVCAR-3)?
**A.** 3.44 µM (inactive)

**Q.** What about the GI50 (MOLT-4) of the same compound?
**A.** 3.54 µM (inactive)

**Q.** What about the GI50 (MDA-MB-435) of the same compound?
**A.** 5.43 µM (inactive)

**Q.** And the GI50 (SK-MEL-2)?
**A.** 3.49 µM (inactive)

**Q.** What about the GI50 (NCI-H460) of the same compound?
**A.** 4.35 µM (inactive)

**Q.** And the GI50 (EKVX)?
**A.** 2.44 µM (inactive)

**Q.** And the GI50 (HCT-116)?
**A.** 3.03 µM (inactive)

**Q.** And the GI50 (A549)?
**A.** 6.92 µM (inactive)

**Q.** And the GI50 (786-0)?
**A.** 3.5 µM (inactive)

**Q.** And the GI50 (SF-295)?
**A.** 5.82 µM (inactive)

**Q.** And the GI50 (TK-10)?
**A.** 1.69 µM (inactive)

**Q.** And the GI50 (NCI-H226)?
**A.** 3.81 µM (inactive)

**Q.** And the GI50 (CCRF-CEM)?
**A.** 3.66 µM (inactive)

**Q.** What about the GI50 (RPMI-8226) of the same compound?
**A.** 3.28 µM (inactive)

**Q.** And the GI50 (OVCAR-5)?
**A.** 5.78 µM (inactive)

**Q.** And the GI50 (LOX IMVI)?
**A.** 3.48 µM (inactive)

**Q.** And the GI50 (NCI-H23)?
**A.** 5.11 µM (inactive)

**Q.** And the GI50 (MDA-MB-231)?
**A.** 4.43 µM (inactive)

**Q.** And the GI50 (CAKI-1)?
**A.** 23.8 µM (inactive)

**Q.** And the GI50 (SNB-19)?
**A.** 5.24 µM (inactive)
